Entries after “also recorded” stand apart in the source; their conditions may differ. Each block holds one compound with its values, some of them ahead of it.
Legend:
[1] = test system: NTUB1 cells; assay: MTT cytotoxicity assay, NTUB1 cells; type: cell-based, human; conditions: for IC50: mean ± SD, n = 3-5
From the text: (§1) The cell lines of the present invention were an human urothelial carcinoma cell line (NTUB1), a human prostate cancer cell line (PC3), a human lung adenocarcinoma epithelial cell line (A549) and a SV-40 immortalized human uroepithelial cell line (SV-HUC1). However, the cell lines applied in the present invention includes but not limit in NTUB1, PC3, A549 and SV-HUC1 cells. Other cell lines having the same characteristics or not exactly the same characteristics are able to be used in the present invention. NTUB1, PC3 and A549 cells were maintained in RPMI 1640 and SV-HUC1 cells were maintained in F12 medium supplemented with 10% fetal bovine serum (FBS), 100 unit/mL penicillin-G, 100 μg/mL streptomycin and 2 mM glutamine. The cells were cultured at 37° C. in a humidified atmosphere containing 5% carbon dioxide.
(§2) The cytotoxic effect of compounds 1 to 18 of the present invention and cisplatin (positive control) on the cell lines was evaluated using 3-[4,5-dimethylthiazol-2-yl]-2,5-diphenyltetrazolium bromide (MTT) assay. Briefly, the cells were plated at a density of 1800 cells/well in 96-well plates and incubated in the presence of graded concentrations of compounds 1 to 18 and cisplatin at 37° C. for 72 hours. At the end of the culture period, 50 μL of MTT ([…] in PBS) was added to each well and allowed to react for 3 hours. Following centrifugation of plates at 1000 g for 10 minutes, media were removed and 150 μL dimethyl sulfoxide (DMSO) were added to each well. The proportions of surviving cells were determined by absorbance spectrometry at 540 nm. The cell viability was expressed as a percentage to the viable cells of control culture condition. The IC50 value of each group were calculated by the median-effect analysis and presented as mean±standard deviation (SD).

[2] = test system: PC3 cells; assay: MTT cytotoxicity assay, PC3 cells; type: cell-based, human; conditions: for IC50: mean ± SD, n = 3-5
From the text: as §1, §2

[3] = test system: A549 cells; assay: MTT cytotoxicity assay, A549 cells; type: cell-based, human; conditions: FIG. 1, compared with NTUB1 and PC3
From the text: as §1
(§3) The cytotoxic effect of compounds 1 to 18 of the present invention and cisplatin (positive control) on the cell lines was evaluated using 3-[4,5-dimethylthiazol-2-yl]-2,5-diphenyltetrazolium bromide (MTT) assay. […] The proportions of surviving cells were determined by absorbance spectrometry at 540 nm. The cell viability was expressed as a percentage to the viable cells of control culture condition. The IC50 value of each group were calculated by the median-effect analysis and presented as mean±standard deviation (SD).

[4] = test system: SV-HUC1 cells; assay: MTT cytotoxicity assay, SV-HUC1 cells; type: cell-based, human; conditions: FIG. 1, compared with NTUB1 and PC3
From the text: as §1, §3

[5] = test system: NTUB1 cells; assay: Cell cycle analysis (propidium iodide, flow cytometer), NTUB1 cells; type: cell-based, human; conditions: NTUB1, 1 μM, 24 hours, FIG. 2
Method: (§4) DNA content was determined following propidium iodide (PI) staining of cells. Briefly, 6×10^5 cells were plated and treated with 20 μM cisplatin and various concentrations of compounds 11 and 15 for 24 hours, respectively. These cells were harvested by trypsinization, washed with 1×PBS, and fixed in ice-cold MeOH at −20° C. After overnight incubation, the cells were washed with PBS and incubated with 50 μg/mL propidium iodide and 50 μg/mL RNase A in PBS at room temperature for 30 minutes. The fractions of cells in each phase of cell cycle were analyzed using flow cytometer.

[6] = test system: PC3 cells; assay: Cell cycle analysis (propidium iodide, flow cytometer), PC3 cells; type: cell-based, human; conditions: FIG. 3
Method: as §4

[7] = test system: NTUB1 cells; assay: Immuno-fluorescence staining of α-tubulin in NTUB1 cells; type: cell-based, human
Method: In brief, NTUB 1 cells were seeded onto serum-coated coverslides. The cells were fixed with 2% formaldehyde/PBS for 20 minutes followed by cold methanol permeabilization for 3 minutes. The cells were washed with 1×PBS five minutes twice. The cells were then incubated with α-tubulin primary antibody overnight. The cells were washed with 1×PBS five minutes thrice. Goat anti-rabbit-rhodamine secondary antibody and 1 μg/mL 4′-6-diamidino-2-phenylindole (DAPI) were incubated for 1 hour at room temperature. The slides were washed with 1×PBS, mounted with mounting solution (80% glycerol/PBS) and photographed by microscopy.

[8] = test system: α-tubulin; assay: Western blot analysis for α-tubulin (soluble vs assembled) in NTUB1 cells; type: cell-based, human; conditions: 6 hours, FIG. 4
Method: NTUB1 cells were seeded at a density of 1×10^6/[…] dishes and treated with indicated concentrations of test agents for 6 hours. The cells were then washed with cold PBS and lysed by adding lysis buffer (20 mM Tris-HCl (pH 6.8), 1 mM MgCl2, 2 mM EGTA (ethylene glycol tetraacetic acid), […] aprotinin, […], 1 mM phenylmethylsulfonyl fluoride, 1 mM orthovanadate, and 0.5% Nonidet P-40). The cell lysates were centrifuged at 15,000 g for 10 min at 4° C. Soluble and assembled tubulin could be separated in supernatant and pellet fraction, respectively. The supernatants and pellets were […] by the sodium dodecyl sulfate (SDS)-polyacrylamide gel electrophoresis assay. The relative amounts of tubulins transferred on the nitrocellulose membrane were detected by anti-tubulin monoclonal antibody and horseradish peroxidase (HRP)-conjugated secondary antibody. β-Actin was used for control. Detection of immunoreactive signal was accomplished with Western blot chemiluminescent reagent.

[9] = test system: NTUB1 cells; assay: Cell death and morphology of treated NTUB1 cells; type: cell-based, human; conditions: NTUB1, different concentrations, 24 hours, data not shown

melting point: 217 to 218 °C
Structure (SMILES): CNC(=O)c1ccc(/C=C/C(=O)c2cc(OC)ccc2OC)cc1 [Compound 8, 4-methylcarbamoyl-2′,5′-dimethoxychalcone]
IC50 ([1]; Homo sapiens, NTUB1, 72 hours): 2.2 ± 0.37 µM | IC50 ([2]; Homo sapiens, PC-3, 72 hours): 2.13 ± 0.21 µM

melting point: 213 to 214 °C
Structure (SMILES): CCNC(=O)c1ccc(/C=C/C(=O)c2cc(OC)ccc2OC)cc1 [Compound 9, 4-ethylcarbamoyl-2′,5′-dimethoxychalcone]
IC50 ([1]; Homo sapiens, NTUB1, 72 hours): 3.76 ± 0.4 µM | IC50 ([2]; Homo sapiens, PC-3, 72 hours): 4.18 ± 0.23 µM

Structure (SMILES): CCCNC(=O)c1ccc(/C=C/C(=O)c2cc(OC)ccc2OC)cc1 [Compound 10, 4-propylcarbamoyl-2′,5′-dimethoxychalcone]
cytotoxicity against NTUB1 cells (in words) [1]: significantly enhanced the cytotoxicity | IC50 ([1]; Homo sapiens, NTUB1, 72 hours): 2.26 ± 0.31 µM | cytotoxicity against PC3 cells (in words) [2]: significantly enhanced the cytotoxicity | IC50 ([2]; Homo sapiens, PC-3, 72 hours): 1.5 ± 0.22 µM

Structure (SMILES): COc1ccc(OC)c(C(=O)/C=C/c2ccc(C(=O)N(C)C)cc2)c1 [Compound 12, 4-dimethylcarbamoyl-2′,5′-dimethoxychalcone]
IC50 ([1]; Homo sapiens, NTUB1, 72 hours): 3.89 ± 0.21 µM | IC50 ([2]; Homo sapiens, PC-3, 72 hours): 4.58 ± 1.05 µM

melting point: 280 to 281 °C
Structure (SMILES): COc1ccc(OC)c(C(=O)/C=C/c2ccc(C(=O)NC3CCCCC3)cc2)c1 [Compound 13, 4-cyclohexylcarbamoyl-2′,5′-dimethoxychalcone]
IC50 ([1]; Homo sapiens, NTUB1, 72 hours): 2.25 ± 0.57 µM | IC50 ([2]; Homo sapiens, PC-3, 72 hours): 6.3 ± 0.59 µM

Structure (SMILES): CCN(CC)C(=O)c1ccc(/C=C/C(=O)c2cc(OC)ccc2OC)cc1 [Compound 14, 4-diethylcarbamoyl-2′,5′-dimethoxychalcone]
IC50 ([1]; Homo sapiens, NTUB1, 72 hours): 2.69 ± 0.47 µM | IC50 ([2]; Homo sapiens, PC-3, 72 hours): 3.79 ± 0.56 µM

Structure (SMILES): COc1ccc(OC)c(C(=O)C=Cc2ccc(C(=O)N3CCCC3)cc2)c1 [Compound 15, 4-tetrahydropyrrolylcarbamoyl-2′,5′-dimethoxychalcone]
cytotoxicity against NTUB1 cells (in words) [1]: significantly enhanced the cytotoxicity; also recorded: strongest cytotoxicity | IC50 ([1]; 72 hours): 1.26 ± 0.25 µM | cytotoxicity against PC3 cells (in words) [2]: significantly enhanced the cytotoxicity; also recorded: strongest cytotoxicity | IC50 ([2]; 72 hours): 0.53 µM | cytotoxicity against A549 cells (in words) [3]: more potent cytotoxic effect against NTUB1 and PC3 cells than that of A549 cells; also recorded: less cytotoxicity | cytotoxicity against human normal uroepithelial SV-HUC1 cells (in words) [4]: less cytotoxicity against human normal uroepithelial SV-HUC1 cells than those of NTUB1 and PC3 cells lines | apoptotic cell death [5]: increase in apoptotic cell death | cell cycle phase arrest ([5]; vs control): induced G1 phase arrest | apoptotic cells death ([6]; PC3, 0.3 μM): increase of the apoptotic cells death | apoptotic cells ([6]; PC3, 1 μM): increase of apoptotic cells | cells arrested at mitosis ([7]; NTUB1, 1 μM, data not shown): induced more NTUB1 cells arrested at mitosis | microtubule bundle formation ([7]; NTUB1, immuno-fluorescent microscopy, mimicked the effect of paclitaxel): induced the microtubule bundle formation | α-tubulin level in the pellet (assembled) ([8]; NTUB1, various concentrations): increased in a dose-dependent manner | α-tubulin level in the supernatant (soluble) ([8]; NTUB1, various concentrations): decreased level in a dose-dependent manner | cell death and cell shape after treatment [9]: more cell death and rounding up

Structure (SMILES): COc1ccc(OC)c(C(=O)C=Cc2ccc(C(=O)N(C)CCO)cc2)c1 [Compound 16, 4-(2-hydroxyethyl)methyl-carbamoyl-2′,5′-dimethoxychalcone]
IC50 ([1]; 72 hours): 4.42 ± 0.15 µM | IC50 ([2]; 72 hours): 5.75 ± 1.27 µM

Structure (SMILES): COc1ccc(OC)c(C(C=Cc2ccc(C(=O)NC3CC3)cc2)=NC2CC2)c1 [Compound 17, N-cyclopropyl-4-[3-cyclopropylimino-3-(2′,5′-dimethoxy-phenyl)-propenyl]-benzamide]
IC50 ([1]; 72 hours): 3.57 ± 0.47 µM | IC50 ([2]; 72 hours): 4.26 ± 0.81 µM

melting point: 237 to 238 °C
Structure (SMILES): COc1ccc(OC)c(C(=O)/C=C/c2ccc(C(=O)O)s2)c1 [Compound 18]
cytotoxicity against NTUB1 cells (in words) [1]: no significant cytotoxicity | IC50 ([1]; Homo sapiens, NTUB1, 72 hours): > 50 µM

Structure (SMILES): CC(=O)O[C@H]1C(=O)[C@@]2(C)[C@H]([C@H](OC(=O)c3ccccc3)[C@]3(O)C[C@H](OC(=O)[C@H](O)[C@@H](NC(=O)c4ccccc4)c4ccccc4)C(C)=C1C3(C)C)[C@]1(OC(C)=O)CO[C@@H]1C[C@@H]2O [Paclitaxel, paclitaxel, reference compound]
tubulin assembly ([8]; NTUB1, 500 nM): stabilized the tubulin assembly
